One test concerns K562-R cells. Put plainly: MTT cell viability assay, IM-resistant K562-R cells. The test is classed as cell-based, human. The conditions noted are these: 72 h, MTT (Fig 10D). As to the method: All cell lines were purchased from the American Type Culture Collection (ATCC). The cell lines were growth at 37°C under 5% CO2 under humidified atmosphere. […] The cell lines L1210 (mouse lymphocytic leukemia cells), Raw (mouse macrophage), HeLa (human epithelial cervix cancer), U-2 OS (human osteosarcoma), MG63 (human osteosarcoma) and T47D (human breast cancer adenocarcinoma) were maintained in DMEM. HEK293 cells stably expressing the GH receptor (HEKGHR) were maintained in DMEM-F12 medium. The human breast cancer cell line SKBR3 was maintained in McCoy’s 5A medium. Cell culture medium was supplemented with 10% FBS, L-glutamine (2 mM) and PEST. In addition, the cell culture medium for T47D was supplemented with 1 mM NaPyr and 10 mM HEPES. Human peripheral blood mononuclear cells (PBMC) were isolated from heparin-anticoagulated blood of healthy volunteers by centrifugation with Ficoll-Paque Plus (Amersham Biosciences).
The mitochondrial metabolization of the tetrazolium salt 3-(4,5-methyltiazol-2yl-)-2,5diphenyl-tetrazolium bromide] (MTT) (Applichen, Germany) was used as indicator of cell viability. Optical density was measured at 595 nm with the iMark Microplate Reader (BioRad, CA, USA).

Another test deals with KBTI cells. Put plainly: Viability of IM-resistant KBTI cells. Particulars: IM-resistant KBTI human cells, data not shown. In kind it is cell-based. The method, then:
(§1) All cell lines were purchased from the American Type Culture Collection (ATCC). The cell lines were growth at 37°C under 5% CO2 under humidified atmosphere. The cell lines K562 (derived from patients during the blast crisis phase of CML and IM sensitive), K562-R (IM resistance human CML), KmycBT15I (KBTI; IM resistant human CML, expressing the Bcr-Abl […] mutant), HEL (human erythroleukemia), HL60 (human acute myeloid leukemia), MOLM-13 (human acute myeloid leukemia), MV4.11 (human acute monocytic leukemia), HCT-15 (human colorectal adenocarcinoma), PC3 (human prostate cancer), MCF7 (human breast cancer), NCTC3749 (mouse lymphoma) as well as the MRC.5 cells (non-malignant human lung fibroblasts) were maintained in RPMI-1640 medium. The cell lines L1210 (mouse lymphocytic leukemia cells), Raw (mouse macrophage), HeLa (human epithelial cervix cancer), U-2 OS (human osteosarcoma), MG63 (human osteosarcoma) and T47D (human breast cancer adenocarcinoma) were maintained in DMEM. HEK293 cells stably expressing the GH receptor (HEKGHR) were maintained in DMEM-F12 medium. […]
(§2) Cells were seeded in 96-well plates (BD Falcon, France) at exponential growth density (5000–20000 cells/well) and treated with vehicle (0.05% DMSO) or compound (0.01 to 10 μM) for 48–72 h. […] Optical density was measured at 595 nm with the iMark Microplate Reader (BioRad, CA, USA).

The test system of a further test is pTyr694-Stat5 (pYStat5). Put plainly: Immunoblotting of constitutive pYStat5 in K562 cells. Particulars: Homo sapiens; K562, 3 μM CM363, 3 h. The test is classed as cell-based. The method, then: Then, cells were rinsed with cold PBS-vanadate (1 mM) followed by preparation of whole lysis extract with RIPA (Pierce, Illinois, USA). Equal amounts of each sample were separated by SDS-PAGE and transfered onto nitrocellulose membranes. After being blocked with 1% BSA-1% Blotto (anti-phospho-antibodies) (Santa Cruz Biotechnology, CA, USA) or 5% blotto (anti-total-antibodies) (Santa Cruz Biotechnology, CA, USA) (both diluted in Tris buffered saline with 0.05% Tween 20), membranes were immunoblotted overnight at 4°C with dilution (1:1000) in the same buffer of blocking of primary phosphoprotein or total protein antibodies. […] To control for differences in loading and transfer efficiency across membranes, membranes were incubated with a monoclonal mouse anti-beta actin antibody (Santa Cruz Biotechnology, CA, USA). The phosphoprotein array analysis of K562 cells was carried out by using the Profiler Human Phospho-Kinase Array Kit ARY003B (R&D Systems, Minneapolis, MN, USA) according to the manufacturer`s instructions.

In the next test the test system is Stat3 response element. The test is described as follows: Stat3 luciferase reporter gene assay in HeLa/Stat3-luc cells. In kind it is cell-based. Particulars: 1 h pretreatment then IL6 7 h.
For a further test, the system named is K562 tumor xenografts. Put plainly: K562 tumor xenografts in NOD-SCID mice. In kind it is in vivo. The conditions noted are these: CM363 10 mg/kg i.p., 25 days, P = 0.004 day 4, P = 0.007 day 25. The method, then: Six weeks old female athymic mice (NOD-SCID), were purchased from Charles River River (Barcelona, Spain), and were housed in a specifically designed pathogen-free isolation facility as reported previously. […] The vehicle and CM363 treatments were administered via intraperitoneal injection (i.p.) every day except Saturday and Sunday. […] The study was conducted over a 25 days period. Caliper measurements of the tumor diameters were performed twice per week, and the tumor volume was estimated as the volume of an ellipse using the following formula: V = 4/3n × (a/2) × (b/2)^2, where a and b correspond to the longest and shortest diameter, respectively. Mice were sacrificed when their tumor diameters reached 2 cm, or when they became moribund. Differences in tumor volumes between control and treated group were evaluated using the Mann-Whitney test.

A further test concerns SKBR3 cells. Put plainly: MTT cell viability assay, SKBR3 cells. Particulars: Homo sapiens, SK-BR-3, SKBR3, 48 h, read-out: IC50 (μM) Mean ± SD. The test is classed as cell-based.
In the next test the test system is K562 cells. The test is described as follows: MTT cell viability assay, K562 cells. Particulars: for IC50: Homo sapiens. The test is classed as cell-based, human. As to the method: All cell lines were purchased from the American Type Culture Collection (ATCC). The cell lines were growth at 37°C under 5% CO2 under humidified atmosphere. The cell lines K562 (derived from patients during the blast crisis phase of CML and IM sensitive), K562-R (IM resistance human CML), KmycBT15I (KBTI; IM resistant human CML, expressing the Bcr-Abl […] mutant), HEL (human erythroleukemia), HL60 (human acute myeloid leukemia), MOLM-13 (human acute myeloid leukemia), MV4.11 (human acute monocytic leukemia), HCT-15 (human colorectal adenocarcinoma), PC3 (human prostate cancer), MCF7 (human breast cancer), NCTC3749 (mouse lymphoma) as well as the MRC.5 cells (non-malignant human lung fibroblasts) were maintained in RPMI-1640 medium. The cell lines L1210 (mouse lymphocytic leukemia cells), Raw (mouse macrophage), HeLa (human epithelial cervix cancer), U-2 OS (human osteosarcoma), MG63 (human osteosarcoma) and T47D (human breast cancer adenocarcinoma) were maintained in DMEM. HEK293 cells stably expressing the GH receptor (HEKGHR) were maintained in DMEM-F12 medium. The human breast cancer cell line SKBR3 was maintained in McCoy’s 5A medium. Cell culture medium was supplemented with 10% FBS, L-glutamine (2 mM) and PEST. In addition, the cell culture medium for T47D was supplemented with 1 mM NaPyr and 10 mM HEPES. Human peripheral blood mononuclear cells (PBMC) were isolated from heparin-anticoagulated blood of healthy volunteers by centrifugation with Ficoll-Paque Plus (Amersham Biosciences).
Cells were seeded in 96-well plates (BD Falcon, France) at exponential growth density (5000–20000 cells/well) and treated with vehicle (0.05% DMSO) or compound (0.01 to 10 μM) for 48–72 h. The mitochondrial metabolization of the tetrazolium salt 3-(4,5-methyltiazol-2yl-)-2,5diphenyl-tetrazolium bromide] (MTT) (Applichen, Germany) was used as indicator of cell viability. Optical density was measured at 595 nm with the iMark Microplate Reader (BioRad, CA, USA).

The next test concerns PC3 cells. The test is described as follows: MTT cell viability assay, PC3 cells. In kind it is cell-based. Particulars: Homo sapiens, PC-3, PC3, 48 h, read-out: IC50 (μM) Mean ± SD. The method, then: as §1, §2
Another test deals with Raw cells. The test is described as follows: MTT cell viability assay, Raw cells. In kind it is cell-based. The conditions noted are these: Mus musculus, 48 h, read-out: IC50 (μM) Mean ± SD. As to the method:
as §1, §2

The test system of a further test is U-2 OS cells. Put plainly: MTT cell viability assay, U-2 OS cells. The test is classed as cell-based. Particulars: Homo sapiens, U2OS, 48 h, read-out: IC50 (μM) Mean ± SD. The method, then:
as §1, §2

A further test relates to HEK cells. The test is described as follows: MTT cell viability assay, HEK cells. The test is classed as cell-based. Particulars: Homo sapiens, HEK293, 48 h, read-out: IC50 (μM) Mean ± SD. The method, then:
as §1, §2

The source of these data is publication PMC5444695, “CM363, a novel naphthoquinone derivative which acts as multikinase modulator and overcomes imatinib resistance in chronic myelogenous leukemia” (Oncotarget, 2016).

“Also recorded” adds a separate entry of the source. Like-named read-outs stand apart in the source and are kept apart here.

Consider `N#Cc1ccc(C2C3=C(CCCC3=O)OC3=C2C(=O)c2ccccc2C3=O)cc1` (centres unmarked) [CM363, 4-(1,6,11-trioxo-2,3,4,6,11,12-hexahydro-1H-benzo[b]xanthen-12-yl)benzonitrile], for which the “lowest concentration at which inhibition was detected” value in the test on K562-R cells was 0.3 µM; with K562 cells (IM sensitive K562, 72 h, MTT (Fig 10D)) it was 0.3 µM. Also, the IC50 is ~600 nM in the test with K562-R cells (Homo sapiens, K-562R); 2.6 ± 0.8 µM in the test on SKBR3 cells; ~0.6 µM in the test with K562 cells (IM sensitive K562, 72 h, MTT (Fig 10D), read-out: IC50, cell viability); 0.7 ± 0.5 µM in the test on K562 cells (K562, 48 h, MTT, read-out: IC50 (μM) Mean ± SD); 1.5 ± 1 µM in the test with PC3 cells; 0.1 ± 0.2 µM with Raw cells. The IC50 turned out to be 4.3 ± 1.2 µM in the test on U-2 OS cells and 0.6 ± 0.2 µM in the test with HEK cells. Besides, the “sensitivity of KBTI cells” value in the test on KBTI cells is listed as “partial resistance”. This molecule also registered an inhibition at 3 µM in the test on pTyr694-Stat5 (pYStat5) of 20%. Besides, the “Stat3-dependent reporter gene (luciferase) activity” value with Stat3 response element was “inhibit”. For the same molecule, the “tumor growth (tumor volume) versus control group” value with K562 tumor xenografts is “suppressed the growth; also recorded: pronounced, and statistically significant reduction”.
